This passage reports IC50 results from patent publication US20190211020A1 (Agency for Science, Technology and Research, priority 2012, published 2019).

As usually defined, the IC50 is the concentration that gives 50% inhibition.

The test system of the first test is eIF4E Ser209 phosphorylation in Hela cells. As to the kind of experiment: MNK cell-based assay (AlphaScreen SureFire, eIF4E Ser209 phosphorylation). The note with it: Homo sapiens; eIF4E Ser209 phosphorylation, Hela cells, 2 hours; read-out: IC50 Hela. The text has this: It has been reported that Ser209 of eIF4E is solely phosphorylated by the MNK enzymes. The ability of compounds to inhibit this process in Hela cells was investigated using the AlphaScreen SureFire® assay platform from Perkin Elmer (Waltham, Mass.). eIF4E phosphorylated on Ser209 is recognized by two antibodies, the first which is fused to a streptavidin coated donor bead binds to an epitope away from Ser209, the second which is fused to a protein A conjugated acceptor bead binds to phosphorylated Ser209. The phosphorylation of eIF4E on Ser209 brings the two antibodies into close proximity and when excited by a laser a singlet oxygen is released by the donor bead which excites the acceptor bead resulting in the emission of light. This enables the monitoring of eIF4E Ser209 phosphorylation and its inhibition in a cellular context.
Hela cells were seeded into microtitre plates (30,000 cells per well) in 100 μl of culture medium and incubated at 37° C. for 24 hours. The media was then removed by aspiration and the cells resuspended in 50 μl of serum free medium containing the test compound and incubated at 37° C. for 2 hours. The culture medium was again removed by aspiration and the cells resuspended in lysis buffer (provided in Perkin Elmer SureFire® Assay Kit). After agitation at 350 rpm for 20 minutes at 22° C., 4 μl was transferred to a 384 well OptiPlate™ (Perkin Elmer, Waltham, Mass.). To each well was added 5 μl of acceptor mix; the plate was sealed and agitated gently at 22° C. for 2 hours. Then, in subdued light, 2 μl of donor mix was added to each well, the plate was sealed, wrapped in aluminum foil and agitated gently at 22° C. for 2 hours. Emission was measured using the EnVision® plate reader (Perkin Elmer, Waltham, Mass.).
Inhibition constants (IC50) were determined by plotting AlphaScreen signal versus log compound concentration and fitting with a non-linear regression algorithm using GraphPad Prism (GraphPad Software Inc.).
(In general: In Alpha technology, singlet oxygen from a donor bead excites a nearby acceptor bead.)
On to `CC(=O)Nc1cc(-c2ccc3ncc(-c4ccc(C#N)cc4)n3c2)ccc1C(=O)N1CCNCC1` [Example 170, N-(5-(3-(4-cyanophenyl)imidazo[1,2-a]pyridin-6-yl)-2-(piperazine-1-carbonyl)phenyl)acetamide], for which the 50% inhibitory concentration (IC50) was less than 1000 nM.

On to `N#Cc1ccc(-c2cnc3ccc(-c4ccc(C(=O)N5CCN(C(=O)c6ccccc6)CC5)cc4)cn23)cc1` [Example 126, 4-(6-(4-(4-benzoylpiperazine-1-carbonyl)phenyl)imidazo[1,2-a]pyridin-3-yl)benzonitrile], for which the IC50 is less than 1000 nM.

For `CN(C(=O)c1ccc(-c2ccc3ncc(-c4ccc(C#N)cc4)n3c2)cc1)c1ccncc1` [Example 122, 4-(3-(4-cyanophenyl)imidazo[1,2-a]pyridin-6-yl)-N-methyl-N-(pyridin-4-yl)benzamide], the IC50 is less than 1000 nM.

In the case of `N#Cc1ccc(-c2cnc3ccc(-c4ccc(C(=O)N5CCC6(CCCCN6)CC5)cc4)cn23)cc1` [Example 117, 4-(6-(4-(1,9-diazaspiro[5.5]undecane-9-carbonyl)phenyl)imidazo[1,2-a]pyridin-3-yl)benzonitrile], the IC50 was less than 1000 nM.

Turning to `NC1CCN(C(=O)c2ccc(-c3ccc4ncc(-c5ccc(Cl)cc5)n4c3)cc2)CC1` [Example 174, (4-aminopiperidin-1-yl)(4-(3-(4-chlorophenyl)imidazo[1,2-a]pyridin-6-yl)phenyl)methanone], the IC50 is less than 1000 nM.

Take `N#Cc1ccc(-c2cnc3ccc(-c4ccc(C(=O)N5CCC6(CCCCN6)CC5)cc4)nn23)cc1` [Example 71, 4-(6-(4-(1,9-diazaspiro[5.5]undecane-9-carbonyl)phenyl)imidazo [1,2-b]pyridazin-3-yl)benzonitrile]: the 50% inhibitory concentration (IC50) was less than 1000 nM.

As to `CC(C)(C)N1CCN(C(=O)c2ccc(-c3cn4c(-c5ccc(C#N)cc5)cnc4cn3)cc2)CC1` [Example 26, 4-(6-(4-(4-tert-butylpiperazine-1-carbonyl)phenyl)imidazo[1,2-a]pyrazin-3-yl)benzonitrile], the IC50 was less than 1000 nM.

Turning to `CN1CCN(C(=O)c2ccc(-c3ccc4ncc(-c5ccc(C#N)cc5)n4c3)cc2OC(F)(F)F)CC1` [Example 157], the IC50 was less than 1000 nM.

For `CN1CCN(C(=O)c2ccc(-c3ccc4ncc(-c5ccc(C#N)cc5)n4c3)c(Cl)c2)CC1` [Example 153], the IC50 was less than 1000 nM.

Turning to `CCN1CCN(C(=O)c2ccc(-c3cn4c(-c5ccc(Cl)cc5)cnc4cn3)cc2)CC1` [Example 45, (4-(3-(4-chlorophenyl)imidazo [1,2-a]pyrazin-6-yl)phenyl)(4-ethylpiperazin-1-yl)methanone], the IC50 was less than 1000 nM.

On to `N#Cc1ccc(-c2cnc3cnc(-c4ccc(C(=O)N5CCOCC5)cc4)cn23)cc1` [Example 7, 4-(6-(4-(morpholine-4-carbonyl)phenyl)imidazo[1,2-a]pyrazin-3-yl)benzonitrile], for which the IC50 was less than 1000 nM.

With `CC1(N2CCOCC2)CCN(C(=O)c2ccc(-c3ccc4ncc(-c5ccc(C#N)cc5)n4c3)cc2)CC1` [Example 163, 4-(6-(4-(4-methyl-4-morpholinopiperidine-1-carbonyl)phenyl)imidazo [1,2-a]pyridin-3-yl)benzonitrile], the IC50 is less than 1000 nM.

As to `N#Cc1ccc(-c2cnc3ccc(-c4ccc(C(=O)N5CCC(N6CCOCC6)CC5)cc4)cn23)cc1` [Example 134, 4-(6-(4-(4-morpholinopiperidine-1-carbonyl)phenyl)imidazo[1,2-a]pyridin-3-yl)benzonitrile], the 50% inhibitory concentration (IC50) is less than 1000 nM.

As for `N#Cc1ccc(-c2cnc3ccc(-c4ccc(C(=O)N5CCNCC5)c(O)c4)cn23)cc1` [Example 159, 4-(6-(3-hydroxy-4-(piperazine-1-carbonyl)phenyl)imidazo[1,2-a]pyridin-3-yl)benzonitrile], the 50% inhibitory concentration (IC50) is less than 1000 nM.

In the case of `CC1(C)CCN(C(=O)c2ccc(-c3cn4c(-c5ccc(C(N)=O)cc5)cnc4cn3)cc2)CC1` [Example 3, 4-(6-(4-(4,4-dimethylpiperidine-1-carbonyl)phenyl)imidazo[1,2-a]pyrazin-3-yl)benzamide], the IC50 was less than 1000 nM.

With `N#Cc1ccc(-c2cnc3cnc(-c4ccc(C(=O)N5CCC(N)CC5)c(F)c4)cn23)cc1` [Example 29, 4-(6-(4-(4-aminopiperidine-1-carbonyl)-3-fluorophenyl)imidazo[1,2-a]pyrazin-3-yl)benzonitrile], the IC50 is less than 1000 nM.

`N#Cc1ccc(-c2cnn3ccc(-c4ccc(C(=O)N5CCCOCC5)cc4)nc23)cc1` [Example 181, 4-(5-(4-(1,4-oxazepane-4-carbonyl)phenyl)pyrazolo[1,5-a]pyrimidin-3-yl)benzonitrile]: the IC50 was less than 1000 nM.

As to `N#Cc1ccc(-c2cnc3cnc(-c4ccc(C(=O)N5CCC(N)CC5)c(Cl)c4)cn23)cc1` [Example 31, 4-(6-(4-(4-aminopiperidine-1-carbonyl)-3-chlorophenyl)imidazo[1,2-a]pyrazin-3-yl)benzonitrile], the IC50 is less than 1000 nM.

As for `CNc1cc(-c2ccc3ncc(-c4ccc(C#N)cc4)n3c2)ccc1C(=O)N1CCN(C)CC1` [Example 150, 4-(6-(3-(methylamino)-4-(4-methylpiperazine-1-carbonyl)phenyl)imidazo [1,2-a]pyridin-3-yl)benzonitrile], the IC50 was less than 1000 nM.

For the molecule `N#Cc1ccc(-c2cnc3ccc(-c4ccc(C(=O)N5CCCOCC5)cc4)nn23)cc1` [Example 64, 4-(6-(4-(1,4-oxazepane-4-carbonyl)phenyl)imidazo[1,2-b]pyridazin-3-yl)benzonitrile], the 50% inhibitory concentration (IC50) is less than 1000 nM.

As to `N#Cc1ccc(-c2cnc3cnc(-c4ccc(C(=O)N5CCC(O)CC5)cc4)cn23)cc1` [Example 15, 4-(6-(4-(4-hydroxypiperidine-1-carbonyl)phenyl)imidazo [1,2-a]pyrazin-3-yl)benzonitrile], the half-inhibitory concentration (IC50) is less than 1000 nM.

`N#Cc1ccc(-c2cnc3ccc(-c4ccc(C(=O)N5CCOCC5)c(N5CCOCC5)c4)cn23)cc1` [Example 160, 4-(6-[3-(morpholin-4-yl)-4-(morpholin-4-ylcarbonyl)phenyl]imidazo[1,2-a]pyridin-3-yl)benzonitrile]: the half-inhibitory concentration (IC50) was less than 1000 nM.

For the molecule `NC(=O)c1ccc(-c2cn3c(-c4ccc(Cl)cc4)cnc3cn2)cc1` [Example 42, 4-(3-(4-chlorophenyl)imidazo[1,2-a]pyrazin-6-yl)benzamide], the IC50 was less than 1000 nM.

As to `CCC1(N)CCN(C(=O)c2ccc(-c3ccc4ncc(-c5ccc(C#N)cc5)n4c3)cc2)CC1` [Example 113, 4-(6-(4-(4-amino-4-ethylpiperidine-1-carbonyl)phenyl)imidazo [1,2-a]pyridin-3-yl)benzonitrile], the half-inhibitory concentration (IC50) was less than 1000 nM.

With `N#Cc1ccc(-c2cnc3ccc(-c4ccc(C(=O)N5CCNC(=O)C5)cc4)nn23)cc1` [Example 68, 4-(6-(4-(3-oxopiperazine-1-carbonyl)phenyl)imidazo [1,2-b]pyridazin-3-yl)benzonitrile], the IC50 was less than 1000 nM.

As to `CN1CCN(C(=O)c2ccc(-c3cn4c(-c5ccc(Cl)cc5)cnc4cn3)cc2)CC1` [Example 41, (4-(3-(4-chlorophenyl)imidazo [1,2-a]pyrazin-6-yl)phenyl)(4-methylpiperazin-1-yl)methanone], the half-inhibitory concentration (IC50) was less than 1000 nM.

Turning to `CC(=O)Nc1cc(-c2ccc3ncc(-c4ccc(C#N)cc4)n3n2)ccc1C(=O)N1CCC(N(C)C)CC1` [Example 81, N-(5-(3-(4-cyanophenyl)imidazo[1,2-b]pyridazin-6-yl)-2-(4-(dimethylamino)piperidine-1-carbonyl)phenyl)acetamide], the IC50 is less than 1000 nM.

For `CN1CCN(C(=O)c2ccc(-c3ccc4ncc(-c5ccc(C#N)cc5)n4n3)cc2)CC1=O` [Example 69, 4-(6-(4-(4-methyl-3-oxopiperazine-1-carbonyl)phenyl)imidazo[1,2-b]pyridazin-3-yl)benzonitrile], the IC50 was less than 1000 nM.

As to `CN1CCN(C(=O)c2ccc(-c3ccc4ncc(-c5ccc6c(c5)CC(=O)N6)n4n3)cc2)CC1` [Example 85, 5-(6-(4-(4-methylpiperazine-1-carbonyl)phenyl)imidazo [1,2-b]pyridazin-3-yl)indolin-2-one], the IC50 was less than 1000 nM.

Consider `COC1(C)CCN(C(=O)c2ccc(-c3ccc4ncc(-c5ccc(C#N)cc5)n4c3)cc2)CC1` [Example 172, 4-(6-(4-(4-methoxy-4-methylpiperidine-1-carbonyl)phenyl)imidazo[1,2-a]pyridin-3-yl)benzonitrile], for which the IC50 was less than 1000 nM.

Regarding `CN1CCN(C(=O)c2ccc(-c3ccc4ncc(-c5ccc(C#N)cc5)n4c3)cc2Cl)CC1` [Example 141, 4-(6-(3-chloro-4-(4-methylpiperazine-1-carbonyl)phenyl)imidazo[1,2-a]pyridin-3-yl)benzonitrile], the IC50 is less than 1000 nM.

Still in this test, the particulars now being: eIF4E Ser209 phosphorylation, Hela cells, 2 hours; read-out: IC50 Hela.
With `CN1CCN(C(=O)c2ccc(-c3ccc4ncc(-c5ccc(C#N)cc5)n4c3)cc2O)CC1` [Example 143], the 50% inhibitory concentration (IC50) was less than 1000 nM.
